Measurements from patent US20130059362A1, “BIOSENSORS COMPRISING PROTEIN-BINDING DOMAINS AND FLUORESCENT PROTEINS” (SIGMA-ALDRICH CO., LLC, priority 2010, published 2013).

Test system: EGFR
Test: Ligand activation of EGFR monitored by relocalization of the 2×(SH2)Grb2 biosensor in live cells
Type: cell-based, human
Settings: 100 ng/mL; much less than EGF
Procedure: The nucleic acid encoding TagGFP-2×(SH2)Grb2 was cloned into a lentiviral vector. Lentiviral particles were prepared and used to stably transfect A549 cells with the TagGFP:2×(SH2)Grb2 biosensor.
The cell nuclei were labeled with 1 μM DRAQ5.
A variety of other ligands were tested for their ability to activate EGFR, as monitored by the SH2 biosensor. […] Most of the ligands were tested for activity with the TagGFP:2×(SH2)Grb2 biosensor in live cells. […]

## HGF: a growth factor that binds HGFR
  Activity (relocalization of the SH2 biosensor): showed activity
